# Entries after “also recorded” stand apart in the source; their conditions may differ.
# How the values were obtained:
# bak = experiment: EPO induced gene expression in PC12 cells, quantitative RT-PCR (bak); type: cell-based, rat; settings: PC-12 cells
# Method: PC-12 cells (from a rat Pheochromocytoma) were cultured on poly-D-Lysine coated tissue culture plastic in DMEM containing 10% FBS and 5% Horse serum. To induce the neuronal phenotype in PC-12 cells, serum was removed and the cells were treated with NGF (50 ng/ml). Cells were grown for 7 days in the presence of the NGF then used for experiments.
# PC-12 cells were cultured as described in Example 1 in a 10 cm poly-D-lysine coated tissue culture dish. […] Total RNA was then isolated using a Qiagen RNAeasy mini prep kit and used for RT-PCR.
# Real time reverse transcription and PCR were performed in a single reaction using a light cycler and an RNA amplification kit from Roche Molecular Biochemicals. RNA was quantitated and added in equal amounts to reaction mix that includes the dsDNA specific dye SYBR green I. Specific PCR reaction products are quantitated by detecting the amount of fluorescence in the reaction at each PCR cycle. Final analysis was performed using the data analysis software included with the light cycler instrument.
# [1] = test system: spontaneous hypertensive rats; experiment: Experimental model of cerebral ischemia (tandem CCA/MCA occlusion), infarct volume; type: in vivo, rat; settings: listed as EPO
# Method: Male spontaneous hypertensive rats (Charles River) weighing between 250-300 g were weighed and then anesthetized with ketamine (100 mg/ml)/xylazine (20 mg/ml) cocktail (1.2 ml/kg; i.p.). The level of anesthetic was assessed by corneal reflex (air puff to eye) and leg jerk in response to tail or foot pinch. Once the rat was anesthetized, it was placed on a small animal surgical board and restrained during the surgical procedure. The rat's body temperature was monitored continuously with a rectal probe and maintained at 37° C. with a homeostatic heating pad.
# Rats were rendered ischemic by tandem occlusion of the left common carotid artery and the left middle cerebral artery for 2 h followed by 22 h of reperfusion using a modification of the technique described by Brint and co-workers (J. Cereb Blood Flow Metab 8:474-485, 1988). Specifically, the left CCA was isolated through an incision in the ventral surface of the neck. […]
# Study I: EPO and Vehicle Delivered Via Osmotic Mini-Pump • […] prior to the onset of ischemia, an osmotic mini-pump (Model 1003D; Alza) filled with vehicle or EPO was placed between the scapula of the rat. […] Twenty-two hours later, the rats were evaluated for behavioral performance, a blood sample was collected for terminal plasma levels of EPO and then the rat was euthanized, brain removed, sectioned and stained for histological analysis.
# Study II: EPO and Vehicle Delivered as a Single Intravenous Bolus Injection • On Day One, the rats were rendered ischemic as described above. […] Twenty-two hours later, the rats were evaluated for behavioral performance, a blood sample was collected for terminal plasma levels of EPO and then the rat was euthanized, brain removed, sectioned and stained for histological analysis. […]
substance,measurement,setting,value
"rhEPO: purified, recombinant human EPO (rhEPO), currently formulated and distributed under the trademarks of EPREX, ERYPO, or PROCRIT",decrease in the expression of the pro-apoptotic Bak,bak; 1 nm EPO for 24 hr (FIG. 3 legend),greater than 5 fold
same,decrease in the expression of the pro-apoptotic gene bak,bak; EPO 1 U/ml for 24 hr,5 fold
same,"infarct volume, Study I","[1]; 132 or 1321 U/day continuous iv infusion via osmotic mini-pump, started before ischemia",significantly reduced infarct volume; also recorded: protects against ischemic injury
same,"infarct volume, Study III","[1]; repeat iv bolus of 2500 U/kg at 15 min, 2 h, 4 h and 6 h post-occlusion",significant decrease in infarct volume; also recorded: protects against ischemic injury
same,"ischemic damage, Study II","[1]; single iv bolus 15 min post-occlusion at 1000, 2500 or 5000 U/kg",did not protect against ischemic damage; also recorded: does not protect against ischemic injury

# Reference: patent US20090170759A1, “NEUROPROTECTIVE PEPTIDES” (priority 2007, published 2009)
